Measured values from publication PMC7114261 (Antiviral Research, 2006).
Where “and” joins values, the source holds several entries; their conditions need not be identical. Equal entries are not always repeated. Where two headings read alike, the source gives them in different places.

Key:
SARS-CoV (Urbani) = tested on: SARS-CoV (Urbani); set-up: species or system BALB/c mice; details: mouse, in vivo
SARS-CoV, strain Urbani [1] = assay: microbe, parasite or virus in culture; type: cell-based; details: Severe acute respiratory syndrome coronavirus; for IC50: Vero 76, read-out: NR assay IC50
in vivo = details: BALB/c, mouse
SARS-CoV, strain Urbani [2] = assay: microbe, parasite or virus in culture; type: cell-based, Severe acute respiratory syndrome coronavirus
in vitro [3] = details: African green monkey
SARS-CoV = details: cited from earlier work
Vero 76 cells = details: African green monkey
in vitro [4] = details: African green monkey, NR assay CC50
[5] = tested on: cytokines in lung homogenates; set-up: species or system BALB/c mice; details: mouse, in vivo
[6] = Severe acute respiratory syndrome coronavirus, Vero 76, read-out: Virus yield reduction assay IC90

Row | Structure (SMILES) | Virus titer ± S.D., Day 3 (SARS-CoV (Urbani)) | Virus titer ± S.D., Day 7 (SARS-CoV (Urbani)) | IC50 (SARS-CoV, strain Urbani [1]) | MTD (in vivo) | IC90 (SARS-CoV, strain Urbani [2]; [6]) | other results
1 | COc1c(C)c2c(c(O)c1C/C=C(\C)CCC(=O)O)C(=O)OC2 [MPA, mycophenolic acid] | 5.5 ± 0.2 log10 CCID50/g and 5.3 ± 0.5 log10 CCID50/g | 0 log10 CCID50/g | > 30 µM | 75 mg/kg | – | –
2 | N=C(N)c1ncn([C@@H]2O[C@H](CO)[C@@H](O)[C@H]2O)n1 [Viramidine, viramidine] | – | – | > 410 µM | – | – | –
3 | C#Cc1c(C(N)=O)ncn1[C@@H]1O[C@H](CO)[C@@H](O)[C@H]1O [EICAR, 5-ethynyl-1-β-D-ribofuranosylimidazole-4-carboxamide] | 5.5 ± 0.5 log10 CCID50/g and 5.3 ± 0.3 log10 CCID50/g | 0 log10 CCID50/g | 28 µM | 75 mg/kg | > 40 µM | –
4 | NC(=O)c1ncn([C@@H]2O[C@H](COP(=O)(O)O)[C@@H](O)[C@H]2O)n1 [Ribavirin monophosphate] | – | – | > 30 µM | – | – | –
5 | NC(=O)c1ncn([C@@H]2O[C@H](CO)[C@@H](O)[C@H]2O)n1 [Ribavirin, ribavirin] | – | – | 320 µM | – | 560 µM | Virus in the lungs of mice sacrificed at day 7 (SARS-CoV (Urbani)): virus was not detected; Virus titer (SARS-CoV (Urbani); 75 mg/kg): 0 log10 CCID50/g; Virus titer (SARS-CoV (Urbani); ip, 20 mg/kg): 0 log10 CCID50/g; CC50 (in vitro [3]): 283 µM; IC50 (SARS-CoV): 2 to 60 µg/mL; average CC50 (Vero 76 cells): ~1685 µg/mL; EC50 (SARS-CoV, strain Urbani [1]; Vero 76, read-out: EC50 by neutral red uptake assay, n = 4): 270 ± 50 µM; EC90 (SARS-CoV, strain Urbani [2]; Severe acute respiratory syndrome coronavirus, Caco-2, read-out: EC90 by virus yield reduction assay): 4100 µM; EC90 (SARS-CoV, strain Urbani [2]; Severe acute respiratory syndrome coronavirus, MA104, read-out: EC90 by virus yield reduction assay): 225 µM; IC90 (SARS-CoV, strain Urbani [2]; read-out: Virus yield reduction assay IC90): 590 µM; CC50 (in vitro [4]): 402 µM; GM-CSF level in lung homogenate [5]: 7.9 ± 1.9 pg/mL and 10.7 ± 0.9 pg/mL and 7.9 ± 0.5 pg/mL and 15.7 ± 4.2 pg/mL; IL-4 level in lung homogenate [5]: 5.9 ± 3.5 pg/mL and 6.3 ± 0.3 pg/mL and 4.9 ± 0.9 pg/mL and 7.3 ± 0.5 pg/mL; IL-5 level in lung homogenate [5]: 25.6 ± 2.0 pg/mL and 34.2 ± 2.1 pg/mL and 19.8 ± 1.7 pg/mL and 33.4 ± 0.4 pg/mL; IL-9 level in lung homogenate [5]: 134.2 ± 39.3 pg/mL and 140.9 ± 6.7 pg/mL and 101.5 ± 25.7 pg/mL and 126.3 ± 67.6 pg/mL
6 | NC(=O)c1ncn([C@@H]2O[C@H](CO)[C@@H](O)[C@H]2O)c1O [Mizoribine, mizoribine] | 4.9 ± 0.3 log10 CCID50/g and 4.7 ± 0.6 log10 CCID50/g | 0 log10 CCID50/g | > 40 µM | 25 mg/kg | – | –
